Laboratory results: US11766044B2, “Method for controlling PPO resistant weeds” (BASF SE, priority 2016, dated 2023)
Like-named read-outs stand apart in the source and are kept apart here.

Columns and labels:
[1] = test system: sensitive (w.10) and resistant weeds (w.11, w.12); assay: Third greenhouse experiment, summary in words; assay type: in vivo, Amaranthus tamariscinus; settings: table 4, 2 and 4 g/ha
[2] = test system: sensitive (w.1, w.4) and resistant weeds (w.2, w.3, w.5, w.6); assay: First greenhouse experiment, summary in words; assay type: in vivo, Amaranthus tamariscinus, Ambrosia elatior; settings: table 2, 1 and 2 g/ha
[3] = test system: Amaranthus tamariscinus (AMATA, common waterhemp), Sensitive (w.1); assay type: in vivo
[4] = test system: Amaranthus tuberculatus (AMATU, tall waterhemp), Sensitive (w.7); assay: Greenhouse herbicidal activity test, another (second) experiment, weed w.7; assay type: in vivo; settings: scale 0 to 100
[5] = test system: Amaranthus tamariscinus (AMATA, common waterhemp), PPO resistant biotype 1 (w.2); assay type: in vivo; settings: scale 0 to 100
[6] = test system: Ambrosia elatior (AMBEL, common ragweed), Sensitive (w.4); assay type: in vivo; settings: scale 0 to 100
[7] = test system: Amaranthus tamariscinus (AMATA, common waterhemp), PPO resistant biotype 2 (w.3); assay type: in vivo; settings: scale 0 to 100

`CCOC(=O)COc1ccccc1Oc1cc(-n2c(=O)cc(C(F)(F)F)n(C)c2=O)c(F)cc1Cl` [compound (I).4] was tested, and the “activity on both sensitive and resistant weeds” value ([1]; sensitive w.10, resistant w.11, w.12) was “very good activity”.

`C#CCN1C(=O)COc2cc(F)c(N3C(=O)C4=C(CCCC4)C3=O)cc21` [flumioxazin, reference compound] was tested, and the “control of resistant in comparison to sensitive biotypes” value [2] was “much weaker control”.

`CCOC(=O)COc1ncccc1Oc1cc(-n2c(=O)cc(C(F)(F)F)n(C)c2=O)c(F)cc1Cl` [compound (I).1] was tested, and the “Weed control (%) w.1” value ([3]; use rate 1 g/ha, scale 0 to 100) was 100%, the “Weed control (%) w.1” value ([3]; use rate 2 g/ha, scale 0 to 100, 100 = complete destruction) was 100% and the “activity on both sensitive and resistant weeds” value ([2]; sensitive w.1, w.4, resistant w.2, w.3, w.5, w.6) was “very good activity”. The “Weed control (%) 7” value ([4]; use rate 1 g/ha) was 100%, the “Weed control (%) 7” value ([4]; use rate 2 g/ha) was 100% and the “Weed control (%) w.2” value ([5]; use rate 1 g/ha) was 100%. For the same molecule, the “Weed control (%) w.2” value ([5]; use rate 2 g/ha) was 100%, the “Weed control (%) w.4” value ([6]; use rate 1 g/ha) was 100% and the “Weed control (%) w.4” value ([6]; use rate 2 g/ha) was 100%. For the same molecule, the “Weed control (%) w.3” value ([7]; use rate 1 g/ha) was 100% and the “Weed control (%) w.3” value ([7]; use rate 2 g/ha) was 100%.

For `C#CCOc1cc(-n2nc3n(c2=O)CCCC3)c(Cl)cc1Cl` [azafenidin, reference compound], the “control of resistant in comparison to sensitive biotypes” value [1] was “much weaker control”.
